Paper PMC10224536 (Molecules, 2023)

Key:
[1] = biological target: T1, synthetic human Aβ1-42 fibrils (Homo sapiens, UniProt P05067); experiment: Competition binding assay against [^3H]SIL26 on Aβ1-42 fibrils
T1 construct: Synthetic lyophilized human Aβ1-42 peptide; purchased EMC Microcollections, Tuebingen, Germany; host or cells: chemical synthesis
Experimental: (§1) The generation of Aβ1-42 fibrils was adapted from Bagchi et al. and described by Kuebler et al.. Synthetic lyophilized human Aβ1-42 peptide (5 mg) with >90% purity (EMC Microcollections, Tuebingen, Germany) was dissolved in DMSO (221.5 µL). […] . The monomers were incubated in an Eppendorf Thermomixer at 37 °C with shaking at 800 rpm for 72 h to induce aggregation. Generated fibrils were sonicated for three minutes in a water bath (Elmasonic S 60 H, Elma Schmidbauer GmbH, Singen, Germany). The final products were aliquoted, frozen on dry ice, and stored at −80 °C until use.
(§2) Plates were incubated on a shaker (MaxQ 6000, Thermo Fisher Scientific Inc., Marietta, OH, USA) at 50 rpm for 2 h at 37 °C, covered by removable sealing tape (PerkinElmer, Waltham, MA, USA). Vacuum filtration and read-out were performed as previously reported. Briefly, a glass fiber Filtermat B (PerkinElmer, Waltham, MA, USA) incubated with 0.5% polyethylenimine (PEI; Sigma Aldrich Chemie GmbH, Munich, Germany) for 30 min at 4 °C prior to filter harvesting was used with a FilterMate Harvester (PerkinElmer, Waltham, MA, USA). Melt-on scintillator sheets (MeltiLex B/HS, PerkinElmer, Waltham, MA, USA) were melted onto dried filters. Accumulation of tritium was counted in a liquid scintillation Wallac MicroBeta TriLux counter (PerkinElmer, Waltham, MA, USA) at two minutes/well.
(§3) . Data points were fitted using non-linear regression analysis in GraphPad Prism (GraphPad Software, Inc., Version 8.4.0, San Diego, CA, USA).

[2] = biological target: T1, synthetic human Aβ1-42 fibrils; experiment: Competition binding assay against [^3H]MODAG−001 on Aβ1-42 fibrils; conditions: competition vs 1 nM [^3H]MODAG−001, Aβ1-42 fibrils 1 µM; mean ± SEM; read-out: Aβ—Ki [^3H]MODAG−001
Experimental: as §1, §2, §3

[3] = biological target: T2, human recombinant αSYN fibrils (Homo sapiens, UniProt P37840); experiment: Competition binding assay against [^3H]SIL26 on αSYN fibrils
Experimental: (§4) The concentrations of αSYN fibrils and Aβ1-42 fibrils as above were used.
(§5) Plates were incubated on a shaker (MaxQ 6000, Thermo Fisher Scientific Inc., Marietta, OH, USA) at 50 rpm for 2 h at 37 °C, covered by removable sealing tape (PerkinElmer, Waltham, MA, USA). Vacuum filtration and read-out were performed as previously reported [18]. Briefly, a glass fiber Filtermat B (PerkinElmer, Waltham, MA, USA) incubated with 0.5% polyethylenimine (PEI; Sigma Aldrich Chemie GmbH, Munich, Germany) for 30 min at 4 °C prior to filter harvesting was used with a FilterMate Harvester (PerkinElmer, Waltham, MA, USA). Melt-on scintillator sheets (MeltiLex B/HS, PerkinElmer, Waltham, MA, USA) were melted onto dried filters. Accumulation of tritium was counted in a liquid scintillation Wallac MicroBeta TriLux counter (PerkinElmer, Waltham, MA, USA) at two minutes/well.

[4] = biological target: T2, human recombinant αSYN fibrils; experiment: Competition binding assay against [^3H]MODAG−001 on αSYN fibrils; conditions: for αSYN—Ki [^3H]MODAG−001: competition vs 1 nM [^3H]MODAG−001, αSYN fibrils 50 nM, mean ± SEM
Experimental: as §4, §5

Aβ = conditions: FDA-approved Aβ PET tracers; cited from earlier work
αSYN = conditions: carbon-11 labeled PET tracer; cited from earlier work
[5] = competition vs [^3H]SIL26 (7 nM), αSYN fibrils 35 nM, mean ± SEM

T1 sequence (P05067 672-713 limits assumed): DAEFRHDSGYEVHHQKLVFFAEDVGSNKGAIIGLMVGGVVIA

Compound	Ki [1] [nM]	Ki [2] [nM]	Ki [3] [nM]	Ki [4] [nM]	other results
COc1ccc2c(c1)Sc1cc(-c3cc(-c4ccccn4)n[nH]3)ccc1N2 [DAP1b, 3-Methoxy-7-(3-(pyridin-2-yl)-1H-pyrazol-5-yl)-10H-phenothiazine]	7.6	10.3 ± 0.8	90.1 ± 56.8	69.9 ± 14.9	–
COc1ccc2c(c1)Sc1cc(-c3cc(-c4cccc(F)c4)n[nH]3)ccc1N2 [DAP1c, 3-(3-(3-Fluorophenyl)-1H-pyrazol-5-yl)-7-methoxy-10H-phenothiazine]	1	15.9 ± 2.4	> 400	> 400	–
FCCOc1ccc2c(c1)Sc1cc(-c3cc(-c4cccc(F)c4)n[nH]3)ccc1N2 [DAP2c, 3-(2-Fluoroethoxy)-7-(3-(3-fluorophenyl)-1H-pyrazol-5-yl)-10H-phenothiazine]	3.1 ± 2.1	8 ± 1.3	> 400	212 ± 93.8	–
CNc1ccc(/C=C/c2ccc(OCCOCCOCCF)nc2)cc1 [Florbetapir]	–	–	–	–	Kd (Aβ): 3.72 ± 0.3 nM
CN(C)c1ccc(-c2cc(-c3cccc(Br)c3)[nH]n2)cc1 [[^11C]anle253b]	–	–	–	–	IC50 (αSYN): 1.6 nM
CNc1ccc(/C=C/c2ccc(OCCOCCOCCF)cc2)cc1 [Florbetaben]	–	–	–	–	Ki (Aβ): 6.7 ± 0.3 nM
CNc1ccc(-c2nc3ccc(O)cc3s2)cc1F [Flutemetamol]	–	–	–	–	Ki (Aβ): 0.74 ± 0.38 nM
CN(C)c1ccc(-c2cc(-c3ccnc(Br)c3)n[nH]2)cc1 [MODAG−001, reference compound]	–	–	–	–	Kd (αSYN): 0.6 ± 0.1 nM; Ki ([3]; read-out: αSYN—Ki [^3H]SIL26, competition vs [^3H]SIL26 (7 nM), αSYN fibrils 35 nM, mean ± SEM): 10.8 nM
FCCOc1ccc2c(c1)Sc1cc(-c3cc(-c4ccccn4)n[nH]3)ccc1N2 [DAP2b, 3-(2-Fluoroethoxy)-7-(3-(pyridin-2-yl)-1H-pyrazol-5-yl)-10H-phenothiazine]	65.8 ± 56.4	12.2 ± 1.7	> 400	107 ± 31.4	–

The next lines start with results.

Ki [1] [nM]	Ki [2] [nM]	Ki [3] [nM]	Ki [4] [nM]	Compound	other results
86.1	> 400	–	–	COc1cccc(Sc2cc(-c3cc(-c4ccccc4)n[nH]3)ccc2N)c1 [DAP3a, 2-((3-Methoxyphenyl)thio)-4-(3-phenyl-1H-pyrazol-5-yl)aniline]	αSYN—Ki [^3H]SIL26 [3, 5]: no competition ^a; αSYN—Ki [^3H]MODAG−001 [4]: no competition
10.7	10.5 ± 0.9	186 ± 145	289 ± 159	COc1ccc2c(c1)Sc1cc(-c3cc(-c4ccccc4)n[nH]3)ccc1N2 [DAP1a, 3-Methoxy-7-(3-phenyl-1H-pyrazol-5-yl)-10H-phenothiazine]	–
25.8 ± 5.8	7.7 ± 1.7	> 400	144 ± 49.5	FCCOc1ccc2c(c1)Sc1cc(-c3cc(-c4ccccc4)n[nH]3)ccc1N2 [DAP2a, 3-(2-Fluoroethoxy)-7-(3-phenyl-1H-pyrazol-5-yl)-10H-phenothiazine]	–
–	> 400	–	–	COc1cccc(Sc2cc(-c3cc(-c4cccc(F)c4)n[nH]3)ccc2N)c1 [DAP3c, 4-(3-(3-Fluorophenyl)-1H-pyrazol-5-yl)-2-((3-methoxyphenyl)thio)aniline]	αSYN—Ki [^3H]SIL26 [3, 5]: no competition ^a; αSYN—Ki [^3H]MODAG−001 [4]: no competition
–	> 400	–	–	COc1cccc(Sc2cc(-c3cc(-c4ccccn4)n[nH]3)ccc2N)c1 [DAP3b, 2-((3-Methoxyphenyl)thio)-4-(3-(pyridin-2-yl)-1H-pyrazol-5-yl)aniline]	αSYN—Ki [^3H]SIL26 [3, 5]: no competition ^a; αSYN—Ki [^3H]MODAG−001 [4]: no competition
